Values joined by “and” are separate entries in the source; they are usually repeats but may differ in a detail not shown here. Equal entries are not always repeated. Structures can show the parent of a compound that is named as a salt. Where two headings read alike, the source gives them in different places.
How the values were obtained:
[1] = molecular target: β2-AR; settings: previously reported; cited from earlier work
[2] = molecular target: β1-AR (Rattus norvegicus (Rat), UniProt P18090); settings: read-out: Ki β1; Ki ± SEM, n=3
β1-AR, sequence (P18090 whole entry): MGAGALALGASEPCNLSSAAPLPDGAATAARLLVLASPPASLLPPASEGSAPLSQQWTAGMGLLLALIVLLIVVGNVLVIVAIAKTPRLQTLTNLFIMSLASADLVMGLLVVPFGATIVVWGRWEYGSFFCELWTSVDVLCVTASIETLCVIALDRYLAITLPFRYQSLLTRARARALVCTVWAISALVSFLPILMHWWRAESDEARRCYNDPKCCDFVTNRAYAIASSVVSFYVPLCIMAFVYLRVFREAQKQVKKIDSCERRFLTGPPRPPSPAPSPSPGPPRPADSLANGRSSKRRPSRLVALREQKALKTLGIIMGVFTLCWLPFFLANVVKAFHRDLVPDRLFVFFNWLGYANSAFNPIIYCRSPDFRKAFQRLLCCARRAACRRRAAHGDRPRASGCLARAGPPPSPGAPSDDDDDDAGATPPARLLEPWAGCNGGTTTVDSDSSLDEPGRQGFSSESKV

[3] = IV 5 mg/kg
[4] = test system: 1321N1 cells; test: Cell cycle distribution by flow cytometry in 1321N1 cells; settings: 20 hours
[5] = test system: U118 cells; settings: [3H]-thymidine incorporation
[6] = test system: rat cardiomyocyte; test: Rat cardiomyocyte contractility model; format: cell-based
[7] = test system: 1321N1 cells; test: Inhibition of mitogenesis, [3H]-thymidine incorporation in 1321N1 cells; format: cell-based, human
[8] = molecular target: human β2-AR (Homo sapiens (Human), UniProt P07550)
[9] = Brain and plasma distribution after single IV administration in rats; format: in vivo, male Sprague-Dawley rats
Description: An overview of the research study design for evaluating the brain-to-plasma distribution of [^3H]
(specific activity 57 Ci/mmol); vehicle was sterile saline, 0.9% sodium chloride, USP. Dose formulations were prepared on the day of the study. The amount of radioactivity in the dose formulation was determined by liquid scintillation. The study lasted for an hour and radioactivity levels in plasma and brain tissue were evaluated at the conclusion of the study. Approximately 5 mls of whole blood was collected. Blood samples were collected via cardiac puncture, transferred into a tube containing K3EDTA as the anticoagulant and kept on wet ice until processed to plasma. To generate plasma, samples were centrifuged within 15 minutes of collection at 2,500 RPM for 15 minutes at room temperature. Plasma was divided equally into three labeled cryovials and stored on ample dry ice until transferred to a freezer set at ≤−20° C. for storage until analysis. Duplicate aliquots were weighed and then combined with scintillation cocktail. The [^3H] radioactivity was determined on a liquid scintillation counter. Brain samples were snap frozen in liquid nitrogen and stored at ≤−70° C. until analysis. Whole brain tissue was homogenized and the weight of the homogenate was determined. Duplicate aliquots from the homogenate were weighed, solubilized and then combined with scintillation cocktail. The [^3H] radioactivity was determined on a liquid scintillation counter.

[10] = rat, IV 5 mg/kg, 5 min, listed as [^3H]—(R,R)-methoxyfenoterol
[11] = rat, IV 5 mg/kg, 60 min, listed as [^3H]—(R,R)-methoxyfenoterol

CC(C)NCC(O)c1ccc(O)c2[nH]c(=O)ccc12 (stereo not shown) [Compound 50]
Ki β1/Ki β2 ratio [1]: 1.7

Oc1cc(O)cc([C@H](O)CNCCc2ccccc2)c1 [(S)-7, (S)-(+)-5-(1-hydroxy-2-phenethylaminoethyl)-1,3-benzenediol Fumarate]
Ki [2]: 52.2 ± 3.01 µM

C[C@@H](Cc1cccc2ccccc12)NC[C@H](O)c1cc(O)cc(O)c1.O=C(O)/C=C/C(=O)O [(R,S)-5, (R,S)-(−)-5-{1-hydroxy-2-[1-methyl-2-(1-naphthyl)ethylamino]ethyl}-1,3-benzenediol Fumarate]
plasma concentration, individual rat ([3]; 240 min, listed as (R,S)-naphthylfenoterol, Fumarate): 0.11 ug/ml (3×) and 0.13 ug/ml (2×) | plasma concentration, individual rat ([3]; 300 min, listed as (R,S)-naphthylfenoterol, Fumarate): 0.10 ug/ml (2×) and 0.11 ug/ml (2×) and 0.12 ug/ml | systemic exposure (AUC) compared to (R,R)-fenoterol ([3]; rat): significantly higher | plasma concentration, Average ([3]; rat, 15 min): 0.68 µg/mL | plasma concentration, Average ([3]; rat, 30 min): 0.43 µg/mL | plasma concentration, Average ([3]; rat, 60 min): 0.34 µg/mL | plasma concentration, Average ([3]; rat, 120 min): 0.24 µg/mL | plasma concentration, Average ([3]; rat, 240 min): 0.12 µg/mL | plasma concentration, Average ([3]; rat, 300 min): 0.11 µg/mL | plasma concentration, Average ([3]; rat, 360 min): 0.09 µg/mL

NCC(O)c1ccc(O)c2[nH]c(=O)ccc12 (stereo not shown) [Compound 51]
Ki β1/Ki β2 ratio [1]: 1.3

C[C@H](Cc1ccc(O)cc1)NC[C@H](O)c1cc(O)cc(O)c1 [(R,R)-1, (R,R)-(−)-Fenoterol]
% Phase Distribution G2 ([4]; 0.1 nM): 1.8% | % Phase Distribution G1 ([4]; 10.0 nM): 76.0% | % Phase Distribution G2 ([4]; 10.0 nM): 2.1% | % Phase Distribution G2 ([4]; 1000 nM): 0.7% | IC50 higher than the value calculated in 1321N1 cells [5]: 50 fold

(R,R)-TA-2005 [Compound 49]
Ki [1]: 0.012 µM | Ki β1/Ki β2 ratio [1]: 53

C[C@@H](Cc1ccc(O)cc1)NC[C@@H](O)c1cc(O)cc(O)c1 (racemic) [(S,S)-1, (S,S)-(±)-Fenoterol]
EC50 [6]: 55 µM

Cc1ccc(OCC(O)C(C)NC(C)C)c2c1CCC2 (stereo not shown) [ICI 118-551]
shift of the (R,R)-fenoterol dose response curve ([7]; 1 nM and 3 nM): parallel rightward shift | pA2 against inhibitory effect of (R,R)-fenoterol ([7]; [3H]-thymidine incorporation, 1321N1 cells): 8.9 | slope of competitive inhibition ([7]; [3H]-thymidine incorporation, versus (R,R)-fenoterol): −1.3±0.3

COc1ccc(C[C@@H](C)NC[C@H](O)c2cc(O)cc(O)c2)cc1.O=C(O)/C=C/C(=O)O [(R,R)-2, (R,R)-(−)-1-p-Methoxyphenyl-2-(β-3′,5′-dihydroxy-phenyl-β-oxy)ethylamino-propane Fumarate]
plasma concentration, individual rat ([3]; 300 min, listed as (R,R)-methoxyfenoterol): 0.06 ug/ml and 0.07 ug/ml (3×) and 0.09 ug/ml | systemic exposure (AUC) compared to (R,R)-fenoterol ([3]; rat): significantly higher | B ([3]; rat, two-compartment open model): 0.3900 µg/mL

O=C(O)/C=C/C(=O)O.Oc1cc(O)cc([C@@H](O)CNCCc2ccccc2)c1 [(R)-7, (R)-(−)-5-(1-Hydroxy-2-phenethylaminoethyl)-1,3-benzenediol fumarate]
Ki [2]: 42.5 ± 3.47 µM | Kiβ2 value higher than (R,S)-3 ([8]; relative to (R,S)-3): 32%

[3H]COc1ccc(C[C@@H](C)NC[C@H](O)c2cc(O)cc(O)c2)cc1 [[^3H]-(R,R)-methoxyfenoterol, [^3H]—(R,R)-methoxyfenoterol chloride]
decrease of plasma level ([9]; from 5 minutes to 60 minutes): 62% | passage through the blood brain barrier ([9]; rat, IV): pass through the blood brain barrier | Brain level, Mean ([9]; rat, IV 5 mg/kg, 5 min): 0.92 μg-equiv/g | Percent of Dose in Brain, Mean ([9]; rat, IV 5 mg/kg, 5 min): 0.14% | Plasma level, Mean ([9]; rat, IV 5 mg/kg, 5 min): 3.25 μg-equiv/ml | Brain level, Mean [9, 10]: 0.92±0.10 μg-equiv/g | Plasma level, Mean [9, 10]: 3.25±0.15 μg-equiv/ml | Brain level, Mean ([9]; rat, IV 5 mg/kg, 15 min): 0.80 μg-equiv/g | Percent of Dose in Brain, Mean ([9]; rat, IV 5 mg/kg, 15 min): 0.12% | Plasma level, Mean ([9]; rat, IV 5 mg/kg, 15 min): 1.79 μg-equiv/ml | Brain level, Mean ([9]; rat, IV 5 mg/kg, 30 min): 0.72 μg-equiv/g | Percent of Dose in Brain, Mean ([9]; rat, IV 5 mg/kg, 30 min): 0.11% | Plasma level, Mean ([9]; rat, IV 5 mg/kg, 30 min): 1.53 μg-equiv/ml | Brain level, Mean ([9]; rat, IV 5 mg/kg, 60 min): 0.70 μg-equiv/g | Percent of Dose in Brain, Mean ([9]; rat, IV 5 mg/kg, 60 min): 0.11% | Plasma level, Mean ([9]; rat, IV 5 mg/kg, 60 min): 1.24 μg-equiv/ml | Brain level, Mean [9, 11]: 0.70±0.37 μg-equiv/g | Plasma level, Mean [9, 11]: 1.24±0.43 μg-equiv/ml | percent dose found in the brain, any given animal ([9]; rat, IV 5 mg/kg, over 60 minutes): no more than 0.17%

C[C@H](Cc1cccc2ccccc12)NC[C@@H](O)c1cc(O)cc(O)c1.O=C(O)/C=C/C(=O)O (racemic) [(S,R)-5, (S,R)-(+)-5-{1-hydroxy-2-[1-methyl-2-(1-naphthyl)ethylamino]ethyl}-1,3-benzenediol Fumarate]
affinity for the β2-AR weaker than (R,R)-5 [8]: 7 fold
